From ChEMBL document CHEMBL1201862, “PubChem BioAssay data set” (2004)
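Assay format: 96-well plates, 48-hour exposure. The concentration for 50% growth inhibition is given as GI50.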 The source made the active and inactive calls. No stated cut-off is given here; in the data, active = GI50 up to about 1.1 µM and inactive = higher.

How the values were obtained:
Experiment in all cases: growth of human tumour cells (NCI), 48 h
SW-620 = test system: SW-620
EKVX = test system: EKVX
HOP-92 = test system: HOP-92
A498 = test system: A498
SK-MEL-5 = test system: SK-MEL-5
MCF7 = test system: MCF7
OVCAR-3 = test system: OVCAR-3
OVCAR-4 = test system: OVCAR-4
RPMI-8226 = test system: RPMI-8226
MDA-MB-231 = test system: MDA-MB-231
HOP-62 = test system: HOP-62
HCT-116 = test system: HCT-116
IGROV-1 = test system: IGROV-1
SF-295 = test system: SF-295
SR = test system: SR
HCC 2998 = test system: HCC 2998
KM12 = test system: KM12
HL-60 = test system: HL-60
OVCAR-5 = test system: OVCAR-5
TK-10 = test system: TK-10
COLO 205 = test system: COLO 205
HCT-15 = test system: HCT-15
T47D = test system: T47D
CAKI-1 = test system: CAKI-1
K562 = test system: K562
ACHN = test system: ACHN
NCI-H226 = test system: NCI-H226
SF-268 = test system: SF-268
CCRF-CEM = test system: CCRF-CEM
U-251 = test system: U-251
DU-145 = test system: DU-145
A549 = test system: A549
SN12C = test system: SN12C
Malme-3M = test system: Malme-3M
SNB-19 = test system: SNB-19
NCI-H23 = test system: NCI-H23
SNB-75 = test system: SNB-75
NCI-H460 = test system: NCI-H460
SK-MEL-2 = test system: SK-MEL-2
HT-29 = test system: HT-29
UACC-62 = test system: UACC-62
NCI/ADR-RES = test system: NCI/ADR-RES
LOX IMVI = test system: LOX IMVI
UACC-257 = test system: UACC-257
SF-539 = test system: SF-539
BT-549 = test system: BT-549
MOLT-4 = test system: MOLT-4
PC-3 = test system: PC-3
OVCAR-8 = test system: OVCAR-8
SK-OV-3 = test system: SK-OV-3
MDA-N = test system: MDA-N
786-0 = test system: 786-0
NCI-H522 = test system: NCI-H522
Hs-578T = test system: Hs-578T
RXF 393 = test system: RXF 393
M14 = test system: M14
MDA-MB-435 = test system: MDA-MB-435
SK-MEL-28 = test system: SK-MEL-28
UO-31 = test system: UO-31

COc1cc2c3c(c1OC)C1(C=CC(=O)C=C1)CC3NCC2 (stereo unspecified)
GI50 (SW-620): > 100 µM (inactive) | GI50 (EKVX): > 100 µM (inactive) | GI50 (HOP-92): > 100 µM (inactive) | GI50 (A498): > 100 µM (inactive) | GI50 (SK-MEL-5): > 100 µM (inactive) | GI50 (MCF7): > 100 µM (inactive) | GI50 (OVCAR-3): > 100 µM (inactive) | GI50 (OVCAR-4): > 100 µM (inactive) | GI50 (RPMI-8226): > 100 µM (inactive) | GI50 (MDA-MB-231): > 100 µM (inactive) | GI50 (HOP-62): > 100 µM (inactive) | GI50 (HCT-116): > 100 µM (inactive) | GI50 (IGROV-1): > 100 µM (inactive) | GI50 (SF-295): > 100 µM (inactive) | GI50 (SR): > 100 µM (inactive) | GI50 (HCC 2998): > 100 µM (inactive) | GI50 (KM12): 80 µM (inactive) | GI50 (HL-60): 32.6 µM (inactive) | GI50 (OVCAR-5): > 100 µM (inactive) | GI50 (TK-10): > 100 µM (inactive) | GI50 (COLO 205): > 100 µM (inactive) | GI50 (HCT-15): > 100 µM | GI50 (T47D): > 100 µM (inactive) | GI50 (CAKI-1): > 100 µM (inactive) | GI50 (K562): > 100 µM (inactive) | GI50 (ACHN): > 100 µM (inactive) | GI50 (NCI-H226): > 100 µM (inactive) | GI50 (SF-268): > 100 µM (inactive) | GI50 (CCRF-CEM): 48.8 µM (inactive) | GI50 (U-251): > 100 µM (inactive) | GI50 (DU-145): > 100 µM (inactive) | GI50 (A549): > 100 µM (inactive) | GI50 (SN12C): > 100 µM (inactive) | GI50 (Malme-3M): > 100 µM (inactive) | GI50 (SNB-19): > 100 µM (inactive) | GI50 (NCI-H23): > 100 µM (inactive) | GI50 (SNB-75): 80.5 µM (inactive) | GI50 (NCI-H460): > 100 µM (inactive) | GI50 (SK-MEL-2): > 100 µM (inactive) | GI50 (HT-29): > 100 µM (inactive) | GI50 (UACC-62): > 100 µM (inactive) | GI50 (NCI/ADR-RES): > 100 µM (inactive) | GI50 (LOX IMVI): > 100 µM (inactive) | GI50 (UACC-257): > 100 µM (inactive) | GI50 (SF-539): > 100 µM (inactive) | GI50 (BT-549): > 100 µM (inactive) | GI50 (MOLT-4): > 100 µM (inactive) | GI50 (PC-3): > 100 µM (inactive) | GI50 (OVCAR-8): > 100 µM (inactive) | GI50 (SK-OV-3): > 100 µM (inactive) | GI50 (MDA-N): > 100 µM (inactive) | GI50 (786-0): 44 µM (inactive) | GI50 (NCI-H522): 71 µM (inactive) | GI50 (Hs-578T): > 100 µM (inactive) | GI50 (RXF 393): 89.7 µM (inactive) | GI50 (M14): > 100 µM (inactive) | GI50 (MDA-MB-435): > 100 µM (inactive) | GI50 (SK-MEL-28): > 100 µM (inactive)

CC1=NN(c2cccc(S(=O)(=O)O)c2)C2(C1)SCC(=O)N2c1nc2ccccc2s1 (stereo unspecified)
GI50 (SW-620): 9.1 µM (inactive) | GI50 (EKVX): > 100 µM (inactive) | GI50 (HOP-92): > 100 µM (inactive) | GI50 (A498): > 100 µM (inactive) | GI50 (SK-MEL-5): > 100 µM (inactive) | GI50 (UO-31): > 100 µM (inactive) | GI50 (MCF7): > 100 µM (inactive) | GI50 (OVCAR-3): 83.2 µM (inactive) | GI50 (OVCAR-4): > 100 µM (inactive) | GI50 (RPMI-8226): > 100 µM (inactive) | GI50 (MDA-MB-231): > 100 µM (inactive) | GI50 (HOP-62): > 100 µM (inactive) | GI50 (HCT-116): > 100 µM (inactive) | GI50 (IGROV-1): > 100 µM (inactive) | GI50 (SF-295): > 100 µM (inactive) | GI50 (SR): 35.7 µM (inactive) | GI50 (HCC 2998): > 100 µM (inactive) | GI50 (KM12): > 100 µM (inactive) | GI50 (HL-60): 91.2 µM (inactive) | GI50 (OVCAR-5): > 100 µM (inactive) | GI50 (TK-10): > 100 µM (inactive) | GI50 (COLO 205): > 100 µM (inactive) | GI50 (HCT-15): > 100 µM | GI50 (T47D): > 100 µM (inactive) | GI50 (CAKI-1): > 100 µM (inactive) | GI50 (K562): > 100 µM (inactive) | GI50 (ACHN): > 100 µM (inactive) | GI50 (NCI-H226): > 100 µM (inactive) | GI50 (SF-268): > 100 µM (inactive) | GI50 (U-251): > 100 µM (inactive) | GI50 (DU-145): > 100 µM (inactive) | GI50 (A549): > 100 µM (inactive) | GI50 (SN12C): > 100 µM (inactive) | GI50 (Malme-3M): > 100 µM (inactive) | GI50 (SNB-19): > 100 µM (inactive) | GI50 (NCI-H23): > 100 µM (inactive) | GI50 (SNB-75): > 100 µM (inactive) | GI50 (NCI-H460): > 100 µM (inactive) | GI50 (SK-MEL-2): > 100 µM (inactive) | GI50 (HT-29): > 100 µM (inactive) | GI50 (UACC-62): > 100 µM (inactive) | GI50 (NCI/ADR-RES): > 100 µM (inactive) | GI50 (LOX IMVI): 88.9 µM (inactive) | GI50 (UACC-257): > 100 µM (inactive) | GI50 (SF-539): 17.6 µM (inactive) | GI50 (BT-549): > 100 µM (inactive) | GI50 (MOLT-4): > 100 µM (inactive) | GI50 (PC-3): > 100 µM (inactive) | GI50 (OVCAR-8): > 100 µM (inactive) | GI50 (SK-OV-3): > 100 µM (inactive) | GI50 (MDA-N): > 100 µM (inactive) | GI50 (786-0): > 100 µM (inactive) | GI50 (NCI-H522): > 100 µM (inactive) | GI50 (Hs-578T): > 100 µM (inactive) | GI50 (RXF 393): > 100 µM (inactive) | GI50 (M14): > 100 µM (inactive) | GI50 (MDA-MB-435): > 100 µM (inactive) | GI50 (SK-MEL-28): > 100 µM (inactive)
